Results reported in ChEMBL document CHEMBL1137635, “Multiple antibiotics exert delayed effects against the Plasmodium falciparum apicoplast” (Antimicrob Agents Chemother, 2007).
pIC50: −log10 of the molar value. Active and inactive are the calls of the source. The rule behind the calls is not given here.

Legend:
[1] = system: Plasmodium falciparum; assay: Antimalarial activity as 3rd generation parasitaemia after 96 hrs against chloroquine-sensitive Plasmodium falciparum 3D7 infected human erythrocytes at 1 uM 0-12 hrs post invasion; type: functional
[2] = system: Plasmodium falciparum; assay: Antimalarial activity as 2nd generation ring-stage chloroquine-sensitive Plasmodium falciparum 3D7 after 48 hrs by flow cytometry; type: functional, organism-based; settings: 3D7, 48 h
[3] = system: Plasmodium falciparum; assay: Antimalarial activity as 3rd generation ring-stage chloroquine-sensitive Plasmodium falciparum 3D7 after 48 hrs dose then 48 hrs drug-free; type: functional, organism-based; settings: 3D7, 48 h
[4] = system: Plasmodium falciparum; assay: Antimalarial activity as 2nd generation ring-stage chloroquine-resistant Plasmodium falciparum W2 after 48 hrs by flow cytometry; type: functional, organism-based; settings: W2, 48 h
[5] = system: Plasmodium falciparum; assay: Antimalarial activity as 3rd generation ring-stage chloroquine-resistant Plasmodium falciparum W2 after 48 hrs dose then 48 hrs drug-free; type: functional, organism-based; settings: W2, 48 h
[6] = system: Plasmodium falciparum; assay: Antimalarial activity as segregation of apicoplasts against chloroquine-sensitive Plasmodium falciparum 3D7 infected human erythrocytes at 1 uM 96 hrs post infection; type: functional, organism-based
[7] = system: Plasmodium falciparum; assay: Antimalarial activity as segregation of apicoplasts against chloroquine-sensitive ACP1-GFP-labeled Plasmodium falciparum 3D7 schizont infected human erythrocytes at 1 uM 96 hrs post infection; type: functional, organism-based
[8] = system: Plasmodium falciparum; assay: Antimalarial activity as arrested schizont maturation in chloroquine-sensitive Plasmodium falciparum 3D7 infected human erythrocytes after 48 hrs at 1 uM dosed 96 hrs post infection; type: functional, organism-based
[9] = system: Plasmodium falciparum; assay: Antimalarial activity as abnormal apicoplast morphology in chloroquine-sensitive ACP1-GFP-labeled Plasmodium falciparum 3D7 trophozoite infected human erythrocytes at 2xIC50 dosed 96 hrs post infection; type: functional
[10] = system: Plasmodium falciparum; assay: Antimalarial activity as parasitaemia against chloroquine-sensitive ACP1-GFP-labeled Plasmodium falciparum 3D7 trophozoite infected human erythrocytes at 2xIC50 dosed 96 hrs post infection; type: functional
[11] = Cmax in patient with tuberculosis at 600 mg, po once daily for 15 to 18 days; type: ADME, organism-based; design: dose 600 mg, route oral; settings: human, in vivo
[12] = Tmax in patient with tuberculosis at 600 mg, po once daily for 15 to 18 days; type: ADME, organism-based; settings: human, in vivo
[13] = Half life in patient with tuberculosis at 600 mg, po once daily for 15 to 18 days; type: ADME, organism-based; settings: human, in vivo
[14] = system: Plasmodium falciparum; assay: Antimalarial activity as abnormal apicoplast morphology in chloroquine-sensitive ACP1-GFP-labeled Plasmodium falciparum 3D7 after 48 hrs at 2xIC50 dosed 96 hrs post infection; type: functional, organism-based
[15] = system: Plasmodium falciparum; assay: Antimalarial activity in chloroquine-sensitive ACP1-GFP-labeled Plasmodium falciparum 3D7 after 48 hrs at 2xIC50 dosed 96 hrs post infection; type: functional, organism-based
[16] = system: Plasmodium falciparum; assay: Antimalarial activity as 3rd generation parasitaemia after 96 hrs against chloroquine-sensitive Plasmodium falciparum 3D7 infected human erythrocytes at 1 uM 0-24 hrs post invasion; type: functional
[17] = system: Plasmodium falciparum; assay: Antimalarial activity as 3rd generation parasitaemia after 96 hrs against chloroquine-sensitive Plasmodium falciparum 3D7 infected human erythrocytes at 1 uM 0-36 hrs post invasion; type: functional
[18] = system: Plasmodium falciparum; assay: Antimalarial activity as 3rd generation parasitaemia after 96 hrs against chloroquine-sensitive Plasmodium falciparum 3D7 infected human erythrocytes at 1 uM 0-48 hrs post invasion; type: functional
[19] = system: Plasmodium falciparum; assay: Antimalarial activity as 3rd generation parasitaemia after 96 hrs against chloroquine-sensitive Plasmodium falciparum 3D7 infected human erythrocytes at 1 uM treated 12-24 hrs post invasion; type: functional
[20] = system: Plasmodium falciparum; assay: Antimalarial activity as 3rd generation parasitaemia after 96 hrs against chloroquine-sensitive Plasmodium falciparum 3D7 infected human erythrocytes at 1 uM 12-36 hrs post invasion; type: functional
[21] = system: Plasmodium falciparum; assay: Antimalarial activity as 3rd generation parasitaemia after 96 hrs against chloroquine-sensitive Plasmodium falciparum 3D7 infected human erythrocytes at 1 uM 12-48 hrs post invasion; type: functional
[22] = system: Plasmodium falciparum; assay: Antimalarial activity as 3rd generation parasitaemia after 96 hrs against chloroquine-sensitive Plasmodium falciparum 3D7 infected human erythrocytes at 1 uM 24-36 hrs post invasion; type: functional
[23] = system: Plasmodium falciparum; assay: Antimalarial activity as 3rd generation parasitaemia after 96 hrs against chloroquine-sensitive Plasmodium falciparum 3D7 infected human erythrocytes at 1 uM 24-48 hrs post invasion; type: functional
[24] = system: Plasmodium falciparum; assay: Antimalarial activity as 3rd generation parasitaemia after 96 hrs against chloroquine-sensitive Plasmodium falciparum 3D7 infected human erythrocytes at 1 uM 36-48 hrs post invasion; type: functional
[25] = system: Plasmodium falciparum; assay: Antimalarial activity as segregation of apicoplasts against chloroquine-sensitive Plasmodium falciparum 3D7 infected in human erythrocytes at 6 uM 96 hrs post infection; type: functional, organism-based
[26] = system: Plasmodium falciparum; assay: Antimalarial activity as segregation of apicoplasts against chloroquine-sensitive ACP1-GFP-labeled Plasmodium falciparum 3D7 schizont infected human erythrocytes at 6 uM 96 hrs post infection; type: functional, organism-based
[27] = system: Plasmodium falciparum; assay: Antimalarial activity as schizont arrest after 48 hrs in chloroquine-sensitive Plasmodium falciparum 3D7 infected human erythrocytes at 6 uM 96 hrs post invasion by Giemsa staining; type: functional, organism-based
[28] = Cmax in patient with bronchitis at 500 mg, po twice daily for 3 days; settings: human, in vivo
[29] = Tmax in patient with bronchitis at 500 mg, po twice daily for 3 days; settings: human, in vivo
[30] = system: Plasmodium falciparum; assay: Antimalarial activity as 3rd generation parasitaemia against chloroquine-sensitive Plasmodium falciparum 3D7 infected human erythrocytes after 96hrs at 6 uM dosed 0-12 hrs post infection; type: functional
[31] = system: Plasmodium falciparum; assay: Antimalarial activity as 3rd generation parasitaemia against chloroquine-sensitive Plasmodium falciparum 3D7 infected human erythrocytes after 96hrs at 6 uM dosed 0-24 hrs post infection; type: functional
[32] = system: Plasmodium falciparum; assay: Antimalarial activity as 3rd generation parasitaemia against chloroquine-sensitive Plasmodium falciparum 3D7 infected human erythrocytes after 96hrs at 6 uM dosed 0-36 hrs post infection; type: functional
[33] = system: Plasmodium falciparum; assay: Antimalarial activity as 3rd generation parasitaemia against chloroquine-sensitive Plasmodium falciparum 3D7 infected human erythrocytes after 96hrs at 6 uM dosed 12-24 hrs post infection; type: functional
[34] = system: Plasmodium falciparum; assay: Antimalarial activity as 3rd generation parasitaemia against chloroquine-sensitive Plasmodium falciparum 3D7 infected human erythrocytes after 96hrs at 6 uM dosed 12-36 hrs post infection; type: functional
[35] = system: Plasmodium falciparum; assay: Antimalarial activity as 3rd generation parasitaemia against chloroquine-sensitive Plasmodium falciparum 3D7 infected human erythrocytes after 96hrs at 6 uM dosed 12-48 hrs post infection; type: functional
[36] = system: Plasmodium falciparum; assay: Antimalarial activity as 3rd generation parasitaemia against chloroquine-sensitive Plasmodium falciparum 3D7 infected human erythrocytes after 96hrs at 6 uM dosed 24-36 hrs post infection; type: functional
[37] = system: Plasmodium falciparum; assay: Antimalarial activity as 3rd generation parasitaemia against chloroquine-sensitive Plasmodium falciparum 3D7 infected human erythrocytes after 96hrs at 6 uM dosed 24-48 hrs post infection; type: functional
[38] = system: Plasmodium falciparum; assay: Antimalarial activity as 3rd generation parasitaemia against chloroquine-sensitive Plasmodium falciparum 3D7 infected human erythrocytes after 96hrs at 6 uM dosed 36-48 hrs post infection; type: functional
[39] = system: Plasmodium falciparum; assay: Antimalarial activity as 3rd generation after 96 hrs against chloroquine-sensitive Plasmodium falciparum 3D7 infected human erythrocytes at 6 uM 0-48 hrs post invasion; type: functional
[40] = system: Plasmodium falciparum; assay: Antimalarial activity as 3rd generation parasitaemia against chloroquine-sensitive Plasmodium falciparum 3D7 infected human erythrocytes after 96 hr at 25 nM dosed 24-48 hrs post infection; type: functional
[41] = system: Plasmodium falciparum; assay: Antimalarial activity as 3rd generation parasitaemia after 96 hrs against chloroquine-sensitive Plasmodium falciparum 3D7 infected human erythrocytes at 25 nM 36-48 hrs post invasion; type: functional
[42] = system: Plasmodium falciparum; assay: Antimalarial activity as segregation of apicoplasts against chloroquine-sensitive Plasmodium falciparum 3D7 infected human erythrocytes at 25 nM 96 hrs post infection; type: functional, organism-based
[43] = system: Plasmodium falciparum; assay: Antimalarial activity as arrested schizont maturation in chloroquine-sensitive Plasmodium falciparum 3D7 infected human erythrocytes after 48 hrs at 25 nM dosed 96 hrs post infection; type: functional, organism-based
[44] = system: Plasmodium falciparum; assay: Antimalarial activity as segregation of apicoplast in chloroquine-sensitive ACP1-GFP-labeled Plasmodium falciparum 3D7 schizont infected human erythrocytes at 25 nM dosed 96 hrs post infection; type: functional, organism-based
[45] = system: Plasmodium falciparum; assay: Antimalarial activity as 3rd generation parasitaemia against chloroquine-sensitive Plasmodium falciparum 3D7 infected human erythrocytes after 96hrs at 25 nM dosed 0-12 hrs post infection; type: functional
[46] = system: Plasmodium falciparum; assay: Antimalarial activity as 3rd generation parasitaemia against chloroquine-sensitive Plasmodium falciparum 3D7 infected human erythrocytes after 96hrs at 25 nM dosed 0-24 hrs post infection; type: functional
[47] = system: Plasmodium falciparum; assay: Antimalarial activity as 3rd generation parasitaemia against chloroquine-sensitive Plasmodium falciparum 3D7 infected human erythrocytes after 96hrs at 25 nM dosed 0-36 hrs post infection; type: functional
[48] = system: Plasmodium falciparum; assay: Antimalarial activity as 3rd generation parasitaemia against chloroquine-sensitive Plasmodium falciparum 3D7 infected human erythrocytes after 96hrs at 25 nM dosed 0-48 hrs post infection; type: functional
[49] = system: Plasmodium falciparum; assay: Antimalarial activity as 3rd generation parasitaemia against chloroquine-sensitive Plasmodium falciparum 3D7 infected human erythrocytes after 96hrs at 25 nM dosed 12-24 hrs post infection; type: functional
[50] = system: Plasmodium falciparum; assay: Antimalarial activity as3rd generation parasitaemia against chloroquine-sensitive Plasmodium falciparum 3D7 infected human erythrocytes after 96 hrs at 25 nM dosed 12-36 hrs post infection; type: functional
[51] = system: Plasmodium falciparum; assay: Antimalarial activity as 3rd generation parasitaemia against chloroquine-sensitive Plasmodium falciparum 3D7 infected human erythrocytes after 96hrs at 25 nM dosed 12-48 hrs post infection; type: functional
[52] = system: Plasmodium falciparum; assay: Antimalarial activity as 3rd generation parasitaemia against chloroquine-sensitive Plasmodium falciparum 3D7 infected human erythrocytes after 96hrs at 25 nM dosed 24-36 hrs post infection; type: functional

**Q.** What does the source list for C[C@H]1c2cccc(O)c2C(=O)C2=C(O)[C@]3(O)C(=O)C(C(N)=O)=C(O)[C@@H](N(C)C)[C@@H]3[C@@H](O)[C@@H]21.O [DOXYCYCLINE]?
**A.** Activity [1]: 89%; pIC50 [2]: 5.27; pIC50 [3]: 6.34; pIC50 [4]: 5.48; pIC50 ([5]; read-out: IC50): 6.68; Activity [6]: Active; Activity [7]: Active; Activity [8]: inactive; Activity [9]: 83.6%; Activity [10]: 97.2%; Cmax [11]: 6.9 µM; Tmax [12]: 2 h; half-life [13]: 7 h; Activity [14]: Active; Activity [15]: Active; Activity [16]: 69%; Activity [17]: 24%; Activity [18]: 9%; Activity [19]: 44%; Activity [20]: 12%; Activity [21]: 13%; Activity [22]: 41%; Activity [23]: 87%; Activity [24]: 121%

**Q.** With O=C(O)c1cn(C2CC2)c2cc(N3CCNCC3)c(F)cc2c1=O [CIPROFLOXACIN] as the compound, how does the pIC50 [2] read?
**A.** 5.03

**Q.** What about the pIC50 [3] of the same compound?
**A.** 5.52

**Q.** What about the pIC50 [4] of the same compound?
**A.** 4.60

**Q.** What about the pIC50 [5] of the same compound?
**A.** 5.76

**Q.** And the Activity [25]?
**A.** Active

**Q.** And the Activity [26]?
**A.** Active

**Q.** And the Activity [27]?
**A.** inactive

**Q.** What about the Activity [9] of the same compound?
**A.** 81.4%

**Q.** And the Activity [10]?
**A.** 98.6%

**Q.** And the Cmax at 72 h [28]?
**A.** 7.6 µM

**Q.** What about the Tmax at 72 h [29] of the same compound?
**A.** 0.6 h

**Q.** And the Activity [30]?
**A.** 80%

**Q.** And the Activity [31]?
**A.** 67%

**Q.** And the Activity [32]?
**A.** 35%

**Q.** What about the Activity [33] of the same compound?
**A.** 63%

**Q.** And the Activity [34]?
**A.** 23%

**Q.** What about the Activity [35] of the same compound?
**A.** 24%

**Q.** And the Activity [36]?
**A.** 70%

**Q.** And the Activity [37]?
**A.** 74%

**Q.** What about the Activity [38] of the same compound?
**A.** 108%

**Q.** And the Activity [39]?
**A.** 13%

**Q.** What does the source list for CCC[C@@H]1C[C@@H](C(=O)N[C@@H]([C@H]2O[C@H](SC)[C@H](O)[C@@H](O)[C@H]2O)[C@H](C)Cl)N(C)C1 [CLINDAMYCIN]?
**A.** Activity [40]: 78%; Activity [41]: 63%; pIC50 [2]: < 4.00; pIC50 [3]: 8.06; pIC50 [4]: < 4.00; pIC50 ([5]; read-out: IC50): 8.51; Activity [42]: Active; Activity [43]: inactive; Activity [9]: 85.2%; Activity [10]: 99.3%; Activity [44]: Active; Activity [14]: Active; Activity [15]: Active; Activity [45]: 87%; Activity [46]: 49%; Activity [47]: 21%; Activity [48]: 11%; Activity [49]: 41%; Activity [50]: 15%; Activity [51]: 19%; Activity [52]: 52%
